Results as given in PubChem BioAssay (NCI).
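How tested: cells in 96-well plates exposed to compound for 48 hours at five concentrations. At the TGI there is no net growth.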

Tests used:
Assay in all cases: NCI-60 cell line screen, 48 h
786-0 renal = tested on: 786-0 renal
A498 renal = tested on: A498 renal
A549 NSCLC = tested on: A549 NSCLC
ACHN renal = tested on: ACHN renal
BT-549 breast = tested on: BT-549 breast
CAKI-1 renal = tested on: CAKI-1 renal
CCRF-CEM leukemia = tested on: CCRF-CEM leukemia
COLO 205 colon = tested on: COLO 205 colon
DU-145 prostate = tested on: DU-145 prostate
EKVX NSCLC = tested on: EKVX NSCLC
HCC-2998 colon = tested on: HCC-2998 colon
HCT-116 colon = tested on: HCT-116 colon
HCT-15 colon = tested on: HCT-15 colon
HL-60(TB) leukemia = tested on: HL-60(TB) leukemia
HOP-62 NSCLC = tested on: HOP-62 NSCLC
HOP-92 NSCLC = tested on: HOP-92 NSCLC
HS 578T breast = tested on: HS 578T breast
HT29 colon = tested on: HT29 colon
IGROV1 ovarian = tested on: IGROV1 ovarian
K-562 leukemia = tested on: K-562 leukemia
KM12 colon = tested on: KM12 colon
LOX IMVI melanoma = tested on: LOX IMVI melanoma
M14 melanoma = tested on: M14 melanoma
MALME-3M melanoma = tested on: MALME-3M melanoma
MCF7 breast = tested on: MCF7 breast
MDA-MB-231 breast = tested on: MDA-MB-231 breast
MDA-MB-435 = tested on: MDA-MB-435
MDA-N = tested on: MDA-N
MOLT-4 leukemia = tested on: MOLT-4 leukemia
NCI-H226 lung = tested on: NCI-H226 lung
NCI-H23 lung = tested on: NCI-H23 lung
NCI-H460 lung = tested on: NCI-H460 lung
NCI-H522 lung = tested on: NCI-H522 lung
NCI/ADR-RES ovarian = tested on: NCI/ADR-RES ovarian
OVCAR-3 ovarian = tested on: OVCAR-3 ovarian
OVCAR-4 ovarian = tested on: OVCAR-4 ovarian
OVCAR-5 ovarian = tested on: OVCAR-5 ovarian
OVCAR-8 ovarian = tested on: OVCAR-8 ovarian
PC-3 prostate = tested on: PC-3 prostate
RPMI-8226 leukemia = tested on: RPMI-8226 leukemia
RXF 393 renal = tested on: RXF 393 renal
SF-268 CNS = tested on: SF-268 CNS
SF-295 CNS = tested on: SF-295 CNS
SF-539 CNS = tested on: SF-539 CNS
SK-MEL-2 melanoma = tested on: SK-MEL-2 melanoma
SK-MEL-28 melanoma = tested on: SK-MEL-28 melanoma
SK-MEL-5 melanoma = tested on: SK-MEL-5 melanoma
SK-OV-3 ovarian = tested on: SK-OV-3 ovarian
SN12C renal = tested on: SN12C renal
SNB-19 CNS = tested on: SNB-19 CNS
SNB-75 CNS = tested on: SNB-75 CNS
SR leukemia = tested on: SR leukemia
SW-620 colon = tested on: SW-620 colon
T-47D breast = tested on: T-47D breast
TK-10 renal = tested on: TK-10 renal
U251 CNS = tested on: U251 CNS
UACC-257 melanoma = tested on: UACC-257 melanoma
UACC-62 melanoma = tested on: UACC-62 melanoma
UO-31 renal = tested on: UO-31 renal

What does the source list for `O=c1c2ncn(C3CC(O)C(CO)O3)c2nnn1Cc1ccccc1[N+](=O)[O-]` (configuration not stated)?
TGI (786-0 renal): > 100 µM; TGI (A498 renal): > 100 µM; TGI (A549 NSCLC): > 100 µM; TGI (ACHN renal): > 100 µM; TGI (BT-549 breast): > 100 µM; TGI (CAKI-1 renal): > 100 µM; TGI (CCRF-CEM leukemia): > 100 µM; TGI (COLO 205 colon): > 100 µM; TGI (DU-145 prostate): > 100 µM; TGI (EKVX NSCLC): > 100 µM; TGI (HCC-2998 colon): > 100 µM; TGI (HCT-116 colon): > 100 µM; TGI (HCT-15 colon): > 100 µM; TGI (HL-60(TB) leukemia): > 100 µM; TGI (HOP-62 NSCLC): > 100 µM; TGI (HOP-92 NSCLC): > 100 µM; TGI (HS 578T breast): > 100 µM; TGI (HT29 colon): > 100 µM; TGI (IGROV1 ovarian): > 100 µM; TGI (K-562 leukemia): > 100 µM; TGI (KM12 colon): > 100 µM; TGI (LOX IMVI melanoma): > 100 µM; TGI (M14 melanoma): > 100 µM; TGI (MALME-3M melanoma): > 100 µM; TGI (MCF7 breast): > 100 µM; TGI (MDA-MB-231 breast): > 100 µM; TGI (MDA-MB-435): > 100 µM; TGI (MDA-N): > 100 µM; TGI (MOLT-4 leukemia): > 100 µM; TGI (NCI-H226 lung): > 100 µM; TGI (NCI-H23 lung): > 100 µM; TGI (NCI-H460 lung): > 100 µM; TGI (NCI-H522 lung): > 100 µM; TGI (NCI/ADR-RES ovarian): > 100 µM; TGI (OVCAR-3 ovarian): > 100 µM; TGI (OVCAR-4 ovarian): > 100 µM; TGI (OVCAR-5 ovarian): > 100 µM; TGI (OVCAR-8 ovarian): > 100 µM; TGI (PC-3 prostate): > 100 µM; TGI (RPMI-8226 leukemia): > 100 µM; TGI (RXF 393 renal): 94.1 µM; TGI (SF-268 CNS): > 100 µM; TGI (SF-295 CNS): > 100 µM; TGI (SF-539 CNS): > 100 µM; TGI (SK-MEL-2 melanoma): > 100 µM; TGI (SK-MEL-28 melanoma): > 100 µM; TGI (SK-MEL-5 melanoma): > 100 µM; TGI (SK-OV-3 ovarian): > 100 µM; TGI (SN12C renal): > 100 µM; TGI (SNB-19 CNS): > 100 µM; TGI (SNB-75 CNS): > 100 µM; TGI (SR leukemia): 45.4 µM; TGI (SW-620 colon): > 100 µM; TGI (T-47D breast): > 100 µM; TGI (TK-10 renal): > 100 µM; TGI (U251 CNS): > 100 µM; TGI (UACC-257 melanoma): > 100 µM; TGI (UACC-62 melanoma): > 100 µM; TGI (UO-31 renal): > 100 µM

What does the source list for `O=C(Cn1ccc(=O)[nH]c1=O)Nc1ccc(C(=O)O)c(O)c1`?
TGI (786-0 renal): > 100 µM; TGI (A498 renal): > 100 µM; TGI (A549 NSCLC): > 100 µM; TGI (ACHN renal): > 100 µM; TGI (BT-549 breast): > 100 µM; TGI (CAKI-1 renal): > 100 µM; TGI (CCRF-CEM leukemia): > 100 µM; TGI (COLO 205 colon): > 100 µM; TGI (DU-145 prostate): > 100 µM; TGI (EKVX NSCLC): > 100 µM; TGI (HCT-116 colon): > 100 µM; TGI (HCT-15 colon): > 100 µM; TGI (HL-60(TB) leukemia): > 100 µM; TGI (HOP-62 NSCLC): > 100 µM; TGI (HOP-92 NSCLC): > 100 µM; TGI (HS 578T breast): > 100 µM; TGI (HT29 colon): > 100 µM; TGI (IGROV1 ovarian): > 100 µM; TGI (K-562 leukemia): > 100 µM; TGI (KM12 colon): > 100 µM; TGI (LOX IMVI melanoma): > 100 µM; TGI (M14 melanoma): > 100 µM; TGI (MALME-3M melanoma): > 100 µM; TGI (MCF7 breast): > 100 µM; TGI (MDA-MB-231 breast): > 100 µM; TGI (MDA-MB-435): > 100 µM; TGI (MDA-N): > 100 µM; TGI (MOLT-4 leukemia): > 100 µM; TGI (NCI-H226 lung): > 100 µM; TGI (NCI-H23 lung): > 100 µM; TGI (NCI-H460 lung): > 100 µM; TGI (NCI-H522 lung): > 100 µM; TGI (NCI/ADR-RES ovarian): > 100 µM; TGI (OVCAR-3 ovarian): > 100 µM; TGI (OVCAR-4 ovarian): > 100 µM; TGI (OVCAR-5 ovarian): > 100 µM; TGI (OVCAR-8 ovarian): > 100 µM; TGI (PC-3 prostate): > 100 µM; TGI (RPMI-8226 leukemia): > 100 µM; TGI (RXF 393 renal): > 100 µM; TGI (SF-268 CNS): > 100 µM; TGI (SF-295 CNS): > 100 µM; TGI (SK-MEL-2 melanoma): > 100 µM; TGI (SK-MEL-28 melanoma): > 100 µM; TGI (SK-MEL-5 melanoma): > 100 µM; TGI (SN12C renal): > 100 µM; TGI (SNB-19 CNS): > 100 µM; TGI (SNB-75 CNS): > 100 µM; TGI (SR leukemia): > 100 µM; TGI (SW-620 colon): > 100 µM; TGI (T-47D breast): > 100 µM; TGI (TK-10 renal): > 100 µM; TGI (U251 CNS): > 100 µM; TGI (UACC-257 melanoma): > 100 µM; TGI (UACC-62 melanoma): > 100 µM; TGI (UO-31 renal): > 100 µM

What does the source list for `O=C(Nc1cccc2cnccc12)c1cc2c(cc1Cl)Sc1nccn1S2(=O)=O`?
TGI (786-0 renal): 33.1 µM; TGI (A549 NSCLC): > 100 µM; TGI (ACHN renal): 77.9 µM; TGI (BT-549 breast): 40.2 µM; TGI (CAKI-1 renal): 91.5 µM; TGI (COLO 205 colon): 30.8 µM; TGI (DU-145 prostate): 55.9 µM; TGI (EKVX NSCLC): 52.8 µM; TGI (HCC-2998 colon): 29.9 µM; TGI (HCT-116 colon): 20 µM; TGI (HCT-15 colon): 27.8 µM; TGI (HL-60(TB) leukemia): 21.8 µM; TGI (HOP-62 NSCLC): 39.7 µM; TGI (HOP-92 NSCLC): 59.4 µM; TGI (HS 578T breast): 73.7 µM; TGI (HT29 colon): 48.3 µM; TGI (IGROV1 ovarian): 45.8 µM; TGI (K-562 leukemia): > 100 µM; TGI (KM12 colon): 21.9 µM; TGI (LOX IMVI melanoma): 31.8 µM; TGI (M14 melanoma): > 100 µM; TGI (MALME-3M melanoma): 38.7 µM; TGI (MCF7 breast): 37.1 µM; TGI (MDA-MB-231 breast): 36.5 µM; TGI (MDA-MB-435): 34.1 µM; TGI (MDA-N): 23.7 µM; TGI (MOLT-4 leukemia): 59.4 µM; TGI (NCI-H226 lung): 38.5 µM; TGI (NCI-H23 lung): 28.6 µM; TGI (NCI-H460 lung): 24.1 µM; TGI (NCI-H522 lung): 33.2 µM; TGI (NCI/ADR-RES ovarian): 57.8 µM; TGI (OVCAR-3 ovarian): 56.7 µM; TGI (OVCAR-4 ovarian): 87.1 µM; TGI (OVCAR-5 ovarian): 77.8 µM; TGI (OVCAR-8 ovarian): 62.7 µM; TGI (PC-3 prostate): > 100 µM; TGI (RPMI-8226 leukemia): 38.6 µM; TGI (RXF 393 renal): 24.4 µM; TGI (SF-268 CNS): 42.2 µM; TGI (SF-295 CNS): 43.5 µM; TGI (SF-539 CNS): 59.3 µM; TGI (SK-MEL-2 melanoma): 32.2 µM; TGI (SK-MEL-28 melanoma): 53.1 µM; TGI (SK-MEL-5 melanoma): 26.2 µM; TGI (SK-OV-3 ovarian): 86 µM; TGI (SN12C renal): 30.5 µM; TGI (SNB-19 CNS): 65.3 µM; TGI (SNB-75 CNS): 47.4 µM; TGI (SR leukemia): 48.9 µM; TGI (SW-620 colon): 50.8 µM; TGI (T-47D breast): 40.8 µM; TGI (TK-10 renal): 59.2 µM; TGI (U251 CNS): 32.1 µM; TGI (UACC-257 melanoma): 45.1 µM; TGI (UACC-62 melanoma): 26 µM; TGI (UO-31 renal): 55.6 µM
